The text below walks through data of ChEMBL document CHEMBL3621097, “A step forward in the sigma enigma: a role for chirality in the sigma1 receptorligand interaction?” (Medchemcomm, 2015).

Active and inactive are the calls of the source. The rule behind the calls is not given here.

In test [1] the target is Sigma non-opioid intracellular receptor 1 (Cavia porcellus, UniProt Q60492). The test is described as follows: Displacement of [3H](+)-pentazocine from sigma-1 receptor in guinea pig brain cortex after 120 mins by scintillation counting analysis. In general terms: In a radioligand displacement assay an active substance lowers the binding of a labelled ligand.
Test [2] in a line: Displacement of [3H]-DTG from sigma-2 receptor in Sprague-Dawley rat liver membranes after 120 mins by scintillation counting analysis. In kind it is cell membranes, Membrane.
The nature of test [3]: Selectivity ratio of Ki for sigma-2 receptor in Sprague-Dawley rat liver membrane to Ki for sigma-1 receptor in guinea pig brain cortex. It counts as cell membranes.
For test [4], the target named is Sigma non-opioid intracellular receptor 1 (Rattus norvegicus) (UniProt Q9R0C9). The test is described as follows: Agonist activity at sigma 1 receptor in rat PC12 cells assessed as potentiation of NGF-induced neurite outgrowth at 2.5 to 5 uM after 5 days by phase contrast microscopic analysis. Particulars: PC-12. In kind it is cell-based.
Test [5] has the same target. The test is described as follows: Agonist activity at sigma 1 receptor in rat PC12 cells assessed as potentiation of NGF-induced neurite outgrowth at 2.5 to 5 uM after 5 days by phase contrast microscopic analysis in presence of sigma 1 antagonist NE-100. It counts as cell-based. Particulars: PC-12.
Test [6] has the same target. The test is described as follows: Agonist activity at sigma 1 receptor in rat PC12 cells assessed as potentiation of NGF-induced neurite outgrowth at 2.5 to 5 uM after 5 days by phase contrast microscopic analysis relative to NGF-treated control. It counts as cell-based. Particulars: PC-12.

Chain of Sigma non-opioid intracellular receptor 1 (Rattus norvegicus) (Q9R0C9 whole entry): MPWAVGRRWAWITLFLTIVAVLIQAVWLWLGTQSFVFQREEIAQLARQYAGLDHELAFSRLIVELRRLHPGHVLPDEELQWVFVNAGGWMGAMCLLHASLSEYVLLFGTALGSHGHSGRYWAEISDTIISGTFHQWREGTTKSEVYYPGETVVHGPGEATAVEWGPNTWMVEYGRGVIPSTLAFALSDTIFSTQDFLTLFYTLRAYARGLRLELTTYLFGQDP
Chain of Sigma non-opioid intracellular receptor 1 (Q60492 whole entry): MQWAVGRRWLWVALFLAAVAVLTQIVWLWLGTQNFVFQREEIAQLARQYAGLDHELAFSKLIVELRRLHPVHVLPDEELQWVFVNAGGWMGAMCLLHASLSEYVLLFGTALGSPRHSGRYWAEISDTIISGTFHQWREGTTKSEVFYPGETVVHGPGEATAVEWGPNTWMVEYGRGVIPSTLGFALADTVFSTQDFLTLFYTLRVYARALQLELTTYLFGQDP

The term Ki denotes the equilibrium dissociation constant of an inhibitor or competing ligand from its target. As for `C[C@@H](CCN1CCCCC1)c1ccc(-c2ccccc2)cc1`, the Ki worked out at 0.0019 µM in test [1] and 0.098 µM in test [2].

For the compound `C[C@](O)(CCN1CCCCC1)c1ccc(-c2ccccc2)cc1`, the figures for the Ki in test [1] and in test [2] were 0.0047 µM and 1.8 µM, respectively. The Ratio Ki in test [3] was found to be 382. Moreover, in test [4], the outcome was Active. For the same compound, the result in test [5] was inactive.

Take `CN(C)CC[C@](C)(O)c1ccc2ccccc2c1`: the results for the inhibition constant Ki in test [1] and in test [2] were 0.063 µM and 0.075 µM, respectively.

Consider `COc1ccc2cc([C@@](C)(O)CCN(C)C)ccc2c1`, for which the values for the Ki in test [1] and in test [2] were 0.025 µM and 1.1 µM, respectively.

As to `CN(C)CCC(C)(O)c1ccc2ccccc2c1` (racemic), the Ki was 0.077 µM in test [1] and 0.066 µM in test [2].

Consider `COc1ccc2cc([C@]3(O)CCN(C)[C@H]3C)ccc2c1`, for which the values for the Ki in test [1] and in test [2] were 1.2 µM and 1.9 µM, respectively.

With `C[C@@](O)(CCN1CCCCC1)c1ccc(-c2ccccc2)cc1`, the Ki in test [1] is 0.039 µM; in test [2] it was 4.3 µM. The outcome in test [6] was inactive.

As to `COc1ccc2cc([C@](C)(O)CCN(C)C)ccc2c1`, the Ki was 0.051 µM in test [1] and 0.133 µM in test [2].

For `CC(CCN1CCCCC1)c1ccc(-c2ccccc2)cc1` (racemic), the inhibitory constant (Ki) worked out at 0.0009 µM in test [1] and 0.103 µM in test [2].

With `CN(C)CC[C@@](C)(O)c1ccc2ccccc2c1`, the Ki in test [1] stood at 0.205 µM; in test [2] it was 0.651 µM.

With `C[C@H]1N(C)CC[C@]1(O)c1ccc2ccccc2c1`, the Ki in test [1] is 0.086 µM; in test [2] it was 0.094 µM.

In the case of `C[C@H](CCN1CCCCC1)c1ccc(-c2ccccc2)cc1`, the inhibition constant (Ki) in test [1] stood at 0.0018 µM; in test [2], 0.045 µM.

For `C[C@@H]1N(C)CC[C@@]1(O)c1ccc2ccccc2c1`, the figures for the Ki in test [1] and in test [2] were 0.026 µM and 0.432 µM, respectively.

For the compound `CC1N(C)CCC1(O)c1ccc2ccccc2c1` (racemic), the Ki amounted to 0.065 µM in test [1] and 0.366 µM in test [2].

On to `COc1ccc2cc(C3(O)CCN(C)C3C)ccc2c1` (configuration not stated), for which the values for the Ki in test [1] and in test [2] were 1.9 µM and 1.5 µM, respectively.

Regarding `COc1ccc2cc([C@@]3(O)CCN(C)[C@@H]3C)ccc2c1`, the values for the Ki in test [1] and in test [2] were 1.5 µM and 1.2 µM, respectively.

Take `COc1ccc2cc(C(C)(O)CCN(C)C)ccc2c1` (racemic): the values for the Ki in test [1] and in test [2] were 0.041 µM and 0.097 µM, respectively.

In the case of `CC(O)(CCN1CCCCC1)c1ccc(-c2ccccc2)cc1` (racemic), the Ki in test [1] was determined as 0.00657 µM; in test [2], 0.0346 µM. In addition, in test [4], the result was Active. The result in test [5] was inactive.
